Measurements: ChEMBL document CHEMBL4368891, “Conformationally restricted quinazolone derivatives as PI3Kδ-selective inhibitors: the design, synthesis and biological evaluation” (Medchemcomm, 2019)
Active and inactive are the calls of the source. No cut-off for these calls is given here.

Legend:
[1] = rat, microsomes
Description: Intrinsic clearance in liver by measuring in intrinsic clearance in rat liver microsomes in presence of NADPH by LC-MS/MS analysis

SU-DHL-6 = experiment: Antiproliferative activity against human SU-DHL6 cells after 72 hrs by CellTiter-Glo luminescent cell viability assay; type: functional; conditions: SU-DHL-6, 72 h
[2] = target: T1, Phosphatidylinositol 4,5-bisphosphate 3-kinase catalytic subunit delta isoform (Homo sapiens, UniProt O00329); experiment: Inhibition of PI3Kdelta (unknown origin) using PIP2 as substrate after 2 hrs by ADP-Glo assay
T1 sequence (O00329 whole entry): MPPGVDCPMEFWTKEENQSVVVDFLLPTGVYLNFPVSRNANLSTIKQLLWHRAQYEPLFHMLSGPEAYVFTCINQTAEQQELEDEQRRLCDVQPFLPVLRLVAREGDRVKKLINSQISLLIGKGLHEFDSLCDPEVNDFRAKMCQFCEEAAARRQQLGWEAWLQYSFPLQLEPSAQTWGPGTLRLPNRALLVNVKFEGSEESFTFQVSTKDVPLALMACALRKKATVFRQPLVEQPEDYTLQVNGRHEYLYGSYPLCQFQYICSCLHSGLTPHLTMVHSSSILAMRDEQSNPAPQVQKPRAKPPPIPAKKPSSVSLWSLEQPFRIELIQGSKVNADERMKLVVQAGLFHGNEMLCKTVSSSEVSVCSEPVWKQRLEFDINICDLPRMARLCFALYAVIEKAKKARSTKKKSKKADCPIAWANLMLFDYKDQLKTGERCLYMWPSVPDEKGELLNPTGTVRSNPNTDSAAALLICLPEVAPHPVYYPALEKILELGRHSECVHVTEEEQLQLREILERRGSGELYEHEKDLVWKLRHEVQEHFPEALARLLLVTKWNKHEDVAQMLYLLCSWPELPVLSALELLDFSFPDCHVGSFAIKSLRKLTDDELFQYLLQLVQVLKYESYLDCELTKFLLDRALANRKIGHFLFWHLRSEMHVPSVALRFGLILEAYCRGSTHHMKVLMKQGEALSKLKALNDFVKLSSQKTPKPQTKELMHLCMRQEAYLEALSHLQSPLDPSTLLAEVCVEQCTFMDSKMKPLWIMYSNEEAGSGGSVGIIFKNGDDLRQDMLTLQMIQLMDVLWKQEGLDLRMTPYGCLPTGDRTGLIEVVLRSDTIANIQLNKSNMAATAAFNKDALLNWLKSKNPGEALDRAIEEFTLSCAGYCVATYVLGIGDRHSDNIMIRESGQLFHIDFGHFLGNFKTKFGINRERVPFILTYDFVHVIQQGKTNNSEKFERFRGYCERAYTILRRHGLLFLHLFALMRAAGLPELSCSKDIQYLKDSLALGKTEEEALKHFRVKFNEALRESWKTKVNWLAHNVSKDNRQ

[3] = Half life in Sprague-Dawley rat at 10 mg/kg, po administered via gavage by LC-MS/MS analysis; type: ADME, organism-based; conditions: in vivo
[4] = target: Phosphatidylinositol 4,5-bisphosphate 3-kinase catalytic subunit alpha isoform (Homo sapiens, UniProt P42336); experiment: Inhibition of PI3Kalpha (unknown origin) using PIP2 as substrate after 2 hrs by ADP-Glo assay
Sequence of Phosphatidylinositol 4,5-bisphosphate 3-kinase catalytic subunit alpha isoform (P42336 whole entry, canonical isoform): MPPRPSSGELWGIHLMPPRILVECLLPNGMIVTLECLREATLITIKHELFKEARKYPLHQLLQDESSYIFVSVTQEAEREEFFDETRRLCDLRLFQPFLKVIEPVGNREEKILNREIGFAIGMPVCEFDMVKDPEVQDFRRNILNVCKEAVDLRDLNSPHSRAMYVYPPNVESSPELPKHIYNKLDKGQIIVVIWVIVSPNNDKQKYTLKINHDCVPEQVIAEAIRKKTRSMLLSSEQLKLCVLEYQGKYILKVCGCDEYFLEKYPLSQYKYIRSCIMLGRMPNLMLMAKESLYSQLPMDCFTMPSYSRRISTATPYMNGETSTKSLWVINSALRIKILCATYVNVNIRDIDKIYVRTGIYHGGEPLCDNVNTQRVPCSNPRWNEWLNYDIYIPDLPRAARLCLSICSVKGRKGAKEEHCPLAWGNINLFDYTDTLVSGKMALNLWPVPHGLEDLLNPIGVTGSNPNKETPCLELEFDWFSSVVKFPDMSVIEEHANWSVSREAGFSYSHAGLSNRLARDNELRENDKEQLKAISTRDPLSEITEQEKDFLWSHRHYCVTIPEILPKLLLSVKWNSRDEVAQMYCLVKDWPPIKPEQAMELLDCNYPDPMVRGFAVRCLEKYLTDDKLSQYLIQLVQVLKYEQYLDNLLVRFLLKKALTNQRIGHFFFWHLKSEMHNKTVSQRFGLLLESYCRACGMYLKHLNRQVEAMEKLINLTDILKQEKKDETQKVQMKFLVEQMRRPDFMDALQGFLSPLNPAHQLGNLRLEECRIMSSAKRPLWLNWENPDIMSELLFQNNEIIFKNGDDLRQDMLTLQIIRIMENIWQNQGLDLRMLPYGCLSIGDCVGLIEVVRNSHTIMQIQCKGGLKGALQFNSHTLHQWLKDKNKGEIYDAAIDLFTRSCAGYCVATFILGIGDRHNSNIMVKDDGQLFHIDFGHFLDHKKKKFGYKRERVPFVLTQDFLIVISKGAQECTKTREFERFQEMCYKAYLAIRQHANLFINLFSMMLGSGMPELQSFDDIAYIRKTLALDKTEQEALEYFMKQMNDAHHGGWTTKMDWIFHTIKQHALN

[5] = target: Phosphatidylinositol 4,5-bisphosphate 3-kinase catalytic subunit beta isoform (Homo sapiens, UniProt P42338); experiment: Inhibition of PI3Kbeta (unknown origin) using PIP2 as substrate after 2 hrs by ADP-Glo assay
Sequence of Phosphatidylinositol 4,5-bisphosphate 3-kinase catalytic subunit beta isoform (P42338 whole entry, canonical isoform): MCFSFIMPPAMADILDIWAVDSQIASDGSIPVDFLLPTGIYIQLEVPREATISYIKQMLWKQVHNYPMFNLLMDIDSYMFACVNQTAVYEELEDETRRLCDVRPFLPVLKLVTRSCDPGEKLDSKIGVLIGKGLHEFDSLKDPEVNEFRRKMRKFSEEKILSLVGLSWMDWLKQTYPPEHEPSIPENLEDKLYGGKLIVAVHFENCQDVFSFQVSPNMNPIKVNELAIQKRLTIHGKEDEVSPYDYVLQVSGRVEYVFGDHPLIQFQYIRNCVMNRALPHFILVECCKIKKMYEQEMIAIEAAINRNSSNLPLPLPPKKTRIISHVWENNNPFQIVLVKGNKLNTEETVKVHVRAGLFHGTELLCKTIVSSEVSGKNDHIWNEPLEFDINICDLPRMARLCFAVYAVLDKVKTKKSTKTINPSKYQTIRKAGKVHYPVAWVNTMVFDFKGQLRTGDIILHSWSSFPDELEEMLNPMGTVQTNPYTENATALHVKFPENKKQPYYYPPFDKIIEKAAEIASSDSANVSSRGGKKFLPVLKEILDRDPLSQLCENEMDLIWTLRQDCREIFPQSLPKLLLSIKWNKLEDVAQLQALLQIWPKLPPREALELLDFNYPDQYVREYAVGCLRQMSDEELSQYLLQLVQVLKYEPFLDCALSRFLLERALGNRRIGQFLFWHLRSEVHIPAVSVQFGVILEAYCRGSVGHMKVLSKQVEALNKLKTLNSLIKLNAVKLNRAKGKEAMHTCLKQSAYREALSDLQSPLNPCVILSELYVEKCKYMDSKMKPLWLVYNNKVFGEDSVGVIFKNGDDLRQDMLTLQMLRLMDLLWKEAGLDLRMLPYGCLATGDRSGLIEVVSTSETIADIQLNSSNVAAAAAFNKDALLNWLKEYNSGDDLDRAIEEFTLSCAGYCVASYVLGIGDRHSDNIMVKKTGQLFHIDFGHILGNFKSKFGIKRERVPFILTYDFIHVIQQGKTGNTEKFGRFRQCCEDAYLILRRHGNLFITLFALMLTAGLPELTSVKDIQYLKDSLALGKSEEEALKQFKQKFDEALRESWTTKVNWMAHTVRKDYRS

[6] = target: Phosphatidylinositol 4,5-bisphosphate 3-kinase catalytic subunit gamma isoform (Homo sapiens, UniProt P48736); experiment: Inhibition of PI3Kgamma (unknown origin) using PIP2 as substrate after 2 hrs by ADP-Glo assay
Sequence of Phosphatidylinositol 4,5-bisphosphate 3-kinase catalytic subunit gamma isoform (P48736 whole entry, canonical isoform): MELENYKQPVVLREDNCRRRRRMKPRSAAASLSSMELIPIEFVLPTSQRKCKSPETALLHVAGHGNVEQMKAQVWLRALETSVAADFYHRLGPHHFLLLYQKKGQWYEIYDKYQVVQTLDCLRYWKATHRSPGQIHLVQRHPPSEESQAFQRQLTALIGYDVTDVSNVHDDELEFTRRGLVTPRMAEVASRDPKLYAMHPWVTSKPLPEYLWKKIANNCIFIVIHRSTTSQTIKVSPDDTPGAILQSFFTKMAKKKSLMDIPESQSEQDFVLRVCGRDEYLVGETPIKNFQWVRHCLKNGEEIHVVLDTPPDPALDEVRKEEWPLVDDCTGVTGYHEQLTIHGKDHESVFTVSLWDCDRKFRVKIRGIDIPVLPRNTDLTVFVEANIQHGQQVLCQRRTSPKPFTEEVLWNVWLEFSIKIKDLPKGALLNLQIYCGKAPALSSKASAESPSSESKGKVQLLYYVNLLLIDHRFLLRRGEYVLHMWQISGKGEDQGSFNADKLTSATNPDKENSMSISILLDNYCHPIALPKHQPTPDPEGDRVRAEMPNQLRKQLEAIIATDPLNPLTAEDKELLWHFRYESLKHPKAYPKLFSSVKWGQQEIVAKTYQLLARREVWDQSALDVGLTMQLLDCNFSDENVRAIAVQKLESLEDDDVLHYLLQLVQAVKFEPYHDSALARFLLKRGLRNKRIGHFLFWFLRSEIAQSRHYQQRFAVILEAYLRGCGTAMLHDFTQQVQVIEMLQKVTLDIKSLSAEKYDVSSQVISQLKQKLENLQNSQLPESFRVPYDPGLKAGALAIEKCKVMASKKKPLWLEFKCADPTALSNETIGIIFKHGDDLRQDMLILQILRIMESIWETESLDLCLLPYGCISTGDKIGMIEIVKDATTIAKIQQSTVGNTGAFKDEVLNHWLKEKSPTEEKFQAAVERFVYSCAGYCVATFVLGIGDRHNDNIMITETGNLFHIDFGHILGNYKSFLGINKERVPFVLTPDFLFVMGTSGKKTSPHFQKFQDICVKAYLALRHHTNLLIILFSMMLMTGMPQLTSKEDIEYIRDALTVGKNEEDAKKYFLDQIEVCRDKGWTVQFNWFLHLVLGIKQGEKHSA

[7] = target: T2, Phosphatidylinositol 4,5-bisphosphate 3-kinase catalytic subunit delta isoform (Homo sapiens) (UniProt O00329); experiment: Inhibition of PI3Kdelta in human SU-DHL6 cells assessed as reduction in Akt phosphorylation at S473 residue after 2 hrs by Western blot analysis; type: cell-based
T2 sequence (whole entry): T1 sequence (O00329 whole entry)

[8] = target: T2, Phosphatidylinositol 4,5-bisphosphate 3-kinase catalytic subunit delta isoform (Homo sapiens); experiment: Inhibition of PI3Kdelta in human SU-DHL6 cells assessed as reduction in S6K1 phosphorylation at T389 residue after 2 hrs by Western blot analysis; type: cell-based
[9] = target: T2, Phosphatidylinositol 4,5-bisphosphate 3-kinase catalytic subunit delta isoform (Homo sapiens); experiment: Inhibition of PI3Kdelta in human SU-DHL6 cells assessed as reduction in Akt phosphorylation at S473 residue at 100 nM after 2 hrs by Western blot analysis; type: cell-based
[10] = target: T2, Phosphatidylinositol 4,5-bisphosphate 3-kinase catalytic subunit delta isoform (Homo sapiens); experiment: Inhibition of PI3Kdelta in human SU-DHL6 cells assessed as reduction in S6K1 phosphorylation at T389 residue a at 100 nM after 2 hrs by Western blot analysis; type: cell-based
[11] = AUC (0 to last) in Sprague-Dawley rat at 10 mg/kg, po administered via gavage by LC-MS/MS analysis; type: ADME, organism-based; parameters: dose 10 mg/kg, time 0 - last, route oral; conditions: in vivo
[12] = human, microsomes
Description: Intrinsic clearance in liver by measuring in intrinsic clearance in human liver microsomes in presence of NADPH by LC-MS/MS analysis

in vitro [13] = conditions: human, liver microsomes
Description: Half life in human liver microsomes in presence of NADPH by LC-MS/MS analysis

in vitro [14] = conditions: human, liver microsomes; remark: listed apart in the source
Description: Intrinsic clearance in human liver microsomes assessed per mg protein in presence of NADPH by LC-MS/MS analysis

in vitro [15] = conditions: human, liver microsomes; remark: listed apart in the source
Description: Metabolic stability in human liver microsomes assessed as compound remaining after 60 mins in presence of NADPH by LC-MS/MS analysis

in vitro [16] = conditions: rat, liver microsomes
Description: Half life in rat liver microsomes in presence of NADPH by LC-MS/MS analysis

in vitro [17] = conditions: rat, liver microsomes; remark: listed apart in the source
Description: Intrinsic clearance in rat liver microsomes assessed per mg protein in presence of NADPH by LC-MS/MS analysis

in vitro [18] = conditions: rat, liver microsomes; remark: listed apart in the source
Description: Metabolic stability in rat liver microsomes assessed as compound remaining after 60 mins in presence of NADPH by LC-MS/MS analysis

`O=C(O)Cc1ccccc1Nc1c(Cl)cccc1Cl` [DICLOFENAC] gave a CLH [1] of 0.143 mL/min/kg.

Work on `CC[C@H](Nc1ncnc2[nH]cnc12)c1nc2cccc(F)c2c(=O)n1-c1ccccc1` [IDELALISIB] yielded a GI50 (SU-DHL-6) of 20 nM.

`O=c1c2c(F)cccc2nc([C@@H]2CCCN2c2ncnc3[nH]cnc23)n1C1CCCCC1` showed an IC50 [2] of 33 nM and a GI50 (SU-DHL-6) of 510 nM.

`N#Cc1c(N)ncnc1N1CCC[C@H]1c1nc2cccc(F)c2c(=O)n1C1CCCC1` gave a half-life [3] of 246 min, an IC50 [2] of 6.3 nM and a GI50 (SU-DHL-6) of 210 nM. It also gave an IC50 [4] of 8590 nM, an IC50 [5] of 1550 nM and an IC50 [6] of 354 nM. The inhibition [7] was “Dose-dependent effect”, the inhibition [8] was “Dose-dependent effect” and the inhibition [9] was “Active”. The inhibition [10] was “Active”, the AUC(0-t) [11] was 50.8 ng·h/mL and the CLH [12] was 0.0713 mL/min/kg. It also gave a CLH [1] of 0.1651 mL/min/kg, a half-life (in vitro [13]) of 17.5 min and a microsomal CLint (in vitro [14]) of 79.2 µL/min/mg. For the same molecule, the remaining at 1 h (in vitro [15]) was 9.1%, the half-life (in vitro [16]) was 15.1 min and the microsomal CLint (in vitro [17]) was 91.7 µL/min/mg. It also gave a remaining at 1 h (in vitro [18]) of 6.2%.

Work on `O=c1c2c(F)cccc2nc([C@@H]2CCCN2c2ncnc3[nH]cnc23)n1Cc1ccccc1` yielded an IC50 [2] of 58 nM and a GI50 (SU-DHL-6) of 480 nM.

With `CCCCn1c([C@@H]2CCCN2c2ncnc3[nH]cnc23)nc2cccc(F)c2c1=O` the IC50 [2] was 42 nM and the GI50 (SU-DHL-6) was 640 nM.

`N#Cc1c(N)ncnc1N1CCC[C@H]1c1nc2cccc(F)c2c(=O)n1Cc1ccccc1` gave an IC50 [2] of 22 nM, a GI50 (SU-DHL-6) of 330 nM and an IC50 [4] of 4940 nM. For the same molecule, the IC50 [5] was 6240 nM, the IC50 [6] was 587 nM and the CLH [12] was 0.0401 mL/min/kg. It also gave a CLH [1] of 1.5571 mL/min/kg, a half-life (in vitro [13]) of 31.1 min and a microsomal CLint (in vitro [14]) of 44.6 µL/min/mg. It also gave a remaining at 1 h (in vitro [15]) of 25.5%, a half-life (in vitro [16]) of 1.6 min and a microsomal CLint (in vitro [17]) of 865 µL/min/mg. It also gave a remaining at 1 h (in vitro [18]) of 0.1%.

`O=c1c2c(F)cccc2nc([C@@H]2CCCN2c2nc(F)nc3[nH]cnc23)n1C1CCCC1` showed an IC50 [2] of 178 nM and a GI50 (SU-DHL-6) of 1890 nM.

In the case of `C[C@]12CC[C@H]3[C@@H](CCC4=CC(=O)CC[C@@]43C)[C@@H]1CC[C@@H]2O` [TESTOSTERONE], the CLH [12] is reported as 0.0911 mL/min/kg and the CLH [1] is reported as 3.7756 mL/min/kg.

Molecule `O=c1c2ccccc2nc([C@@H]2CCCN2c2ncnc3[nH]cnc23)n1Cc1ccccc1` has an IC50 [2] of 498 nM and a GI50 (SU-DHL-6) of 580 nM.

`O=c1c2c(F)cccc2nc([C@@H]2CCCN2c2ncnc3[nH]cnc23)n1C1CCC1` showed an IC50 [2] of 635 nM and a GI50 (SU-DHL-6) of 630 nM.

Work on `O=c1c2c(F)cccc2nc([C@@H]2CCCN2c2nc(F)nc3[nH]cnc23)n1Cc1ccccc1` yielded an IC50 [2] of 91 nM and a GI50 (SU-DHL-6) of 380 nM.

`O=c1c2c(F)cccc2nc([C@@H]2CCCN2c2ncnc3[nH]cnc23)n1C1CCCC1` gave an IC50 [2] of 38 nM and a GI50 (SU-DHL-6) of 2650 nM.
